Assay results reported in patent US7645781B2, “N-aryl-2-oxazolidinone-5-carboxamides and their derivatives” (Pfizer Inc, priority 2002, dated 2010).
≈ marks a conversion by molar mass, not a printed value.

Tests used:
[1] = test system: Staphylococcus aureus (SAUR 9213); test: MIC by standard agar dilution method; format: cell-based; conditions: Mueller Hinton agar, incubated overnight at 35° C., read-out: MIC
From the text: The antibacterial agents of this invention have useful activity against a variety of organisms. The in vitro activity of compounds of this invention can be assessed by standard testing procedures such as the determination of minimum inhibitory concentration (MIC) by agar dilution as described in “Approved Standard. Methods for Dilution Antimicrobial Susceptibility Tests for Bacteria That Grow Aerobically”, 3rd. ed., published 1993 by the National Committee for Clinical Laboratory Standards, Villanova, Pa., USA. The in vitro MICs of test compounds are determined by a standard agar dilution method. A stock drug solution of each analog is prepared in the preferred solvent, usually DMSO:H2O (1:3). Serial 2-fold dilutions of each sample are made using 1.0 ml aliquots of sterile distilled water. To each 1.0 ml aliquot of drug is added 9 ml of molten Mueller Hinton agar medium. The drug-supplemented agar is mixed, poured into 15×100 mm petri dishes, and allowed to solidify and dry prior to inoculation. Vials of each of the test organisms are maintained frozen in the vapor phase of a liquid nitrogen freezer. Test cultures are grown overnight at 35° C. on the medium appropriate for the organism. Colonies are harvested with a sterile swab, and cell suspensions are prepared in Trypticase Soy broth (TSB) to equal the turbidity of a 0.5 McFarland standard. A 1:20 dilution of each suspension is made in TSB. The plates containing the drug supplemented agar are inoculated with a 0.001 ml drop of the cell suspension using a Steers replicator, yielding approximately 10^4 to 10^5 cells per spot. The plates are incubated overnight at 35° C. Following incubation the Minimum Inhibitory Concentration (MIC μg/ml), the lowest concentration of drug that inhibits visible growth of the organism, is read and recorded.

Row | MIC [1] [µg/mL] | melting point | Structure (SMILES)
1 | 1 (≈ 3.11 µM) | 183 to 184.5 °C | CC(C)n1c(=O)sc2cc(N3C[C@H](C(N)=O)OC3=O)ccc21 [Example 31, (5R)-(−)-3-(2,3-Dihydro-3-isopropyl-2-oxo-6-benzothiazolyl)-2-oxo-5-oxazolidinecarboxamide]
2 | 1 (≈ 3.25 µM) | 264 to 267 °C | CNC(=O)[C@H]1CN(c2ccc3c(c2)sc(=O)n3C)C(=O)O1 [Example 32, (5R)-(−)-N-Methyl-3-(2,3-dihydro-3-methyl-2-oxo-6-benzothiazolyl)-2-oxo-5-oxazolidinecarboxamide]
3 | 4 (≈ 12.4 µM) | 224.5 to 226 °C | CCNC(=O)[C@H]1CN(c2ccc3c(c2)sc(=O)n3C)C(=O)O1 [Example 33, (5R)-(−)-N-Ethyl-3-(2,3-dihydro-3-methyl-2-oxo-6-benzothiazolyl)-2-oxo-5-oxazolidinecarboxamide]
4 | 8 (≈ 23.7 µM) | 217 to 219 °C | Cn1c(=O)sc2cc(N3C[C@H](C(=O)NCCO)OC3=O)ccc21 [Example 34, (5R)-(−)-N-(2-Hydroxyethyl)-3-(2,3-dihydro-3-methyl-2-oxo-6-benzothiazolyl)-2-oxo-5-oxazolidinecarboxamide]
5 | 2 (≈ 5.89 µM) | 201 to 203 °C | Cn1c(=O)sc2cc(N3C[C@H](C(=O)NCCF)OC3=O)ccc21 [Example 35, (5R)-N-(2-Fluoroethyl)-3-(2,3-dihydro-3-methyl-2-oxo-6-benzothiazolyl)-2-oxo-5-oxazolidinecarboxamide]
6 | 2 (≈ 6.22 µM) | 227 to 229 °C | CCn1c(=O)sc2cc(N3C[C@H](C(=O)NC)OC3=O)ccc21 [Example 36, (5R)-(−)-N-Methyl-3-(2,3-dihydro-3-ethyl-2-oxo-6-benzothiazolyl)-2-oxo-5-oxazolidinecarboxamide]
7 | 2 (≈ 5.96 µM) | 172 to 173.5 °C | CNC(=O)[C@H]1CN(c2ccc3c(c2)sc(=O)n3C(C)C)C(=O)O1 [Example 37, (5R)-(−)-N-Methyl-3-(2,3-dihydro-3-isopropyl-2-oxo-6-benzothiazolyl)-2-oxo-5-oxazolidinecarboxamide]
8 | 1 (≈ 3.61 µM) | > 260 °C | Cn1c(=O)oc2cc(N3C[C@H](C(N)=O)OC3=O)ccc21 [Example 38, (5R)-(−)-3-(2,3-dihydro-3-methyl-2-oxo-6-benzoxazolyl)-2-oxo-5-oxazolidinecarboxamide]
9 | 1 (≈ 3.43 µM) | 234 to 236 °C | CCn1c(=O)oc2cc(N3C[C@H](C(N)=O)OC3=O)ccc21 [Example 39, (5R)-(−)-3-(2,3-Dihydro-3-ethyl-2-oxo-6-benzoxazolyl)-2-oxo-5-oxazolidinecarboxamide]
10 | 4 (≈ 13.1 µM) | 182.5 to 184 °C | CC(C)n1c(=O)oc2cc(N3C[C@H](C(N)=O)OC3=O)ccc21 [Example 40, (5R)-(−)-3-(2,3-Dihydro-3-isopropyl-2-oxo-6-benzoxazolyl)-2-oxo-5-oxazolidinecarboxamide]
11 | 2 (≈ 5.4 µM) | 180.5 to 182 °C | CNC(=O)[C@H]1CN(c2ccc(C3CCS(=O)(=O)CC3)c(F)c2)C(=O)O1 [Example 41, (5R)-(−)-N-Methyl-3-[4-(Tetrahydro-2H-thiopyran-4-yl)-3-fluorophenyl]-2-oxo-5-oxazolidinecarboxamide S,S-dioxide]
12 | 4 (≈ 11.7 µM) | 179 to 181 °C | CNC(=O)[C@H]1CN(c2cc(F)c(N3CCOCC3)c(F)c2)C(=O)O1 [Example 42, (5R)-(−)-N-Methyl-3-[3,5-difluoro-4-(4-morpholinyl)phenyl]-2-oxo-5-oxazolidinecarboxamide]
13 | 4 (≈ 10.7 µM) | 237 to 241 °C | CNC(=O)[C@H]1CN(c2cc(F)c(N3CC[S+]([O-])CC3)c(F)c2)C(=O)O1 [Example 43, (5R)-(−)-N-Methyl-3-[3,5-difluoro-4-(thiomorpholin-4-yl)phenyl]-2-oxo-5-oxazolidinecarboxamide S-oxide]
14 | 4 (≈ 10.3 µM) | 243 to 246 °C | CNC(=O)[C@H]1CN(c2cc(F)c(N3CCS(=O)(=O)CC3)c(F)c2)C(=O)O1 [Example 44, (5R)-(−)-N-Methyl-3-[3,5-difluoro-4-(thiomorpholin-4-yl)phenyl]-2-oxo-5-oxazolidinecarboxamide S,S-dioxide]
15 | 4 (≈ 10.7 µM) | 243 to 245 °C | NC(=O)[C@H]1CN(c2cc(F)c(C3CCS(=O)(=O)CC3)c(F)c2)C(=O)O1 [Example 45, (5R)-3-[3,5-Difluoro-4-(Tetrahydro-2H-thiopyran-4-yl)phenyl]-2-oxo-5-oxazolidinecarboxamide S,S-dioxide]
16 | 8 (≈ 22.3 µM) | 283 to 285 °C (dec.) | NC(=O)[C@H]1CN(c2cc(F)c([C@H]3CC[S@@+]([O-])CC3)c(F)c2)C(=O)O1 [Example 46, (5R)-(−)-3-[3,5-Difluoro-4-(cis-tetrahydro-1-oxido-2H-thiopyran-4-yl)phenyl]-2-oxo-5-oxazolidinecarboxamide]
17 | 8 (≈ 27.7 µM) | 228 to 230 °C | C[C@@H]1Cc2cc(N3C[C@H](C(N)=O)OC3=O)ccc2N1C=O [Example 49, (5R)-3-[(2R)-2,3-Dihydro-1-formyl-2-methyl-1H-indol-5-yl]-2-oxo-5-oxazolidinecarboxamide]
18 | 2 (≈ 6.26 µM) | 198 to 200 °C | C[C@@H]1Cc2cc(N3C[C@H](C(N)=O)OC3=O)ccc2N1C(=O)CO [Example 50, (5R)-3-[(2R)-2,3-Dihydro-1-(hydroxyacetyl)-2-methyl-1H-indol-5-yl]-2-oxo-5-oxazolidinecarboxamide]
19 | 2 (≈ 6.87 µM) | 304 to 306 °C | CNC(=O)[C@H]1CN(c2ccc3c(c2)oc(=O)n3C)C(=O)O1 [Example 51, (5R)-(−)-N-Methyl-3-(2,3-dihydro-3-methyl-2-oxo-6-benzoxazolyl)-2-oxo-5-oxazolidinecarboxamide]
20 | 2 (≈ 6.55 µM) | 263 to 265 °C | CCn1c(=O)oc2cc(N3C[C@H](C(=O)NC)OC3=O)ccc21 [Example 52, (5R)-(−)-N-Methyl-3-(2,3-dihydro-3-ethyl-2-oxo-6-benzoxazolyl)-2-oxo-5-oxazolidinecarboxamide]
21 | 2 (≈ 6.26 µM) | 216 to 218 °C | CNC(=O)[C@H]1CN(c2ccc3c(c2)oc(=O)n3C(C)C)C(=O)O1 [Example 53, (5R)-(−)-N-Methyl-3-(2,3-dihydro-3-isopropyl-2-oxo-6-benzoxazolyl)-2-oxo-5-oxazolidinecarboxamide]
22 | 0.5 (≈ 1.46 µM) | 257 °C (dec.) | NC(=O)[C@H]1CN(c2ccc(N3Cc4cccnc4C3)c(F)c2)C(=O)O1 [Example 54, (5R)-3-[4-(5,7-Dihydro-6H-pyrrolo[3,4-b]pyridin-6-yl)-3-fluorophenyl]-2-oxo-5-oxazolidinecarboxamide]
23 | 1 (≈ 2.81 µM) | 275 °C (dec.) | CNC(=O)[C@H]1CN(c2ccc(N3Cc4cccnc4C3)c(F)c2)C(=O)O1 [Example 55, (5R)-N-Methyl-3-[4-(5,7-dihydro-6H-pyrrolo[3,4-b]pyridin-6-yl)-3-fluorophenyl]-2-oxo-5-oxazolidinecarboxamide]
